Data as given in US20070196288A1, “Method of treating periodontitis and of reducing dentinal sensitivity” (Research Foundation of the State University of New York, priority 2006, published 2007).

What was measured:
[1] = Dissolution of gadolinium materials; assay type: physicochemical
[2] = test system: cell culture media-precipitated proteases from P. Gingivalis; assay: BAPNA hydrolysis by culture media-precipitated proteins; assay type: biochemical, P. Gingivalis 381; conditions: FIG. 1; inhibitor 2-10 mM tested, 10 mM stated for gadolinium nitrate; 5% 2-mercaptoethanol, 37° C., 1 hour
Description: (§1) All steps in the isolation of P. Gingivalis proteins were carried out at 4° C. […] The cells and culture media were separated by centrifugation at 10,000×g for 10 minutes in a Sorvall centrifuge.
To the cell-separated culture supernatant, ammonium sulfate was added to achieve 80% saturation in a volume of 400 ml. After 4 hours, the precipitate was collected by centrifugation at 11,000×g for 45 minutes. It was then dissolved in HEPES and dialyzed against 4 liters of HEPES buffer. The precipitate formed on dialysis was removed by centrifugation at 10,000×g for 30 minutes, the supernatant was collected, and the precipitated material was discarded. Extracted proteins was analyzed for protein content using a Spectrophotometer ND-1000.
(§2) Activity of cell surface-extracted and culture-precipitated proteases was assayed by using the synthetic chromogenic substrate benzoyl-L-Arg-p-nitroanilide (BAPNA). [Erlanger, B. F., Kokowsky, N. & Cohen, W., “The Preparation and Properties of Two New Chromogenic Substrates of Trypsin”, 95 Arch. […] Colorimetric values measured as absorbance were obtained using Spectronic 2000 Methodology for culture media-precipitated proteins.
The reaction mixture consisted of 50 μl of 100 mM substrate in 50 mM HEPES buffer, pH 7, and 25 μl of the sample protease containing 2 mg/ml of protein was used to test chromogenic activity of the substrate. With 5% of 2-mercaptoethanol as reducing agent, volume was made to 250 μl. Various concentrations of the inhibitor 2 mM; 4 mM; 6 mM; 8 mM; 10 mM were used.
(§3) After incubation at 37° C. for 1 hour, 100 μl of 5 N acetic acid was added to stop the reaction in both experimental samples. The total volume was made to 1 ml by addition of water. The p-nitroaniline released was determined by measuring A405.

[3] = test system: cell surface-extracted proteases from P. Gingivalis; assay: BAPNA hydrolysis by cell surface-extracted proteins; assay type: biochemical, P. Gingivalis 381; conditions: for inhibitory effect on cell surface-extracts (BAPNA hydrolysis): FIG. 2, inhibitor 0.4-2.4 mM tested, 2.4 mM stated for gadolinium nitrate, 5% 2-mercaptoethanol, 37° C., 1 hour; for OD at A405 (p-nitroaniline released): inhibitor concentration 2.4 mM
Description: as §1
P. Gingivalis cells collected after centrifugation were washed three times with 50 millimolar (“mM”) HEPES buffer, pH 7.0. The washed cells were stirred with 1% Triton X-100 (Fisher Scientific) dissolved in HEPES (Fisher Scientific) at 4° C. for 15 minutes to solubilize cell surface proteins. The cells were centrifuged at 10,000×g in a Sorvall centrifuge for 10 minutes, and the supernatant was collected. [Sojar, H. T., Lee, J. Y., Bedi, G. S. et al., “Purification and Characterization of a Protease from Porphyromonas Gingivalis Capable of Degrading Salt-Solubilized Collagen”, 61 Infect. Immun. […] The amount of protein was estimated using a Spectrophotometer ND-1000 by absorbance at 280 nm.
as §2
The reaction mixture consisted of 100 μl of 100 mM substrate in 50 mM HEPES buffer, pH 7, 50 μl of an approximately 1 mg/ml of proteins was used to test chromogenic activity of the substrate. With 5% of 2-mercaptoethanol as reducing agent, the volume was made to 500 μl. Various volumes of the inhibitor 0.4 mM; 0.8 mM; 1.2 mM; 1.6 mM; 2.0 mM; 2.4 mM were used.
as §3

[4] = test system: P. Gingivalis proteins extracted from cell surface and precipitated from cell culture media (gelatin-cleaving / collagenolytic activity); assay: Gelatin zymography; assay type: biochemical, P. Gingivalis 381; conditions: inhibitor 5 mM in development buffer, 37° C. overnight; both protein preparations (FIGS. 3 and 4)
Description: Since P. Gingivalis proteases cleave gelatin effectively, the gelatin-cleaving activity of the extracted proteins was checked by zymography, as described by Heussen and Dowdle using 10% Zymogen (Gelatin) Gel 1.0 mm×10 well (Invitrogen Corporation). [Heussen, C. & Dowdle, E. B., “Electrophoretic Analysis of Plasminogen Activators in Polyacrylamide Gels Containing Sodium Dodecyl Sulfate and Copolymerized Substrates”, 102 Anal. Biochem. 196-202 (1980).]
The extracted proteins, with the reducing sample buffer containing 5% mercaptoethanol, was electrophoresed. After electrophoresis, the gel was washed in 50 mM HEPES, pH 7.0, containing 2% Triton X-100 for 30 minutes, and rinsed twice with the same buffer without Triton X-100. The gel was then cut into 3 parts before transferring to a development buffer containing 50 mM HEPES, 5% 2-mercaptoethanol, buffered at pH 7.0. One part was incubated with developing buffer whereas the other two parts were incubated in the presence of inhibitor with varying concentrations of 5 mM and 10 mM. The gel was incubated at 37° C. overnight on a rocker. The incubated gel was then fixed with 50% methanol and 12% acetic acid for 30 minutes, and stained with 0.1% Coomassie blue in 50% methanol and 12% acetic acid to visualize lytic bands.

[5] = pH of the applied solution; assay type: physicochemical; conditions: pH of the solution or product as applied to dentine

| Compound | conditions required for dissolution [1] | inhibition of protease activity (BAPNA hydrolysis), cell culture-precipitated proteins [2] [%] | inhibitory effect on cell surface-extracts (BAPNA hydrolysis) [3] [%] | OD at A405 (p-nitroaniline released) [3] | effect on gelatin-cleaving / collagenolytic activity on zymogram [4] | pH [5] | pH ([5]; listed as Gadolinium nitrate) |
| --- | --- | --- | --- | --- | --- | --- | --- |
| O=C([O-])C(=O)[O-].O=C([O-])C(=O)[O-].O=C([O-])C(=O)[O-].[Gd+3].[Gd+3] [Gadolinium oxalate] | required very acidic conditions for dissolution | – | – | – | – | – | – |
| O.O.O.O.O.O.[Cl-].[Cl-].[Cl-].[Gd+3] [gadolinium chloride, gadolinium chloride hexahydrate (GdCl3.6H2O)] | – | ~70 | ~54 | ~0.45 | – | – | – |
| O.O.O.O.O.O.O.[Ce+3].[Cl-].[Cl-].[Cl-] [cerium chloride, cerium chloride heptahydrate (CeCl3.7H2O)] | – | ~11 | ~32 | ~0.66 | – | – | – |
| O.O.O.O.O.O.[Cl][Sm]([Cl])[Cl] [samarium chloride, samarium chloride hexahydrate, (SmCl3.6H2O)] | – | ~75 | ~59 | ~0.39 | – | – | – |
| [Gd] [gadolinium] | – | – | – | – | negative staining bands were absent | – | – |
| O.O.O.O.O.O.O=[N+]([O-])[O-].O=[N+]([O-])[O-].O=[N+]([O-])[O-].[Gd+3] [gadolinium nitrate, gadolinium nitrate hexahydrate, (Gd(NO3)3.6H2O)] | – | – | ~56 | ~0.43 | inhibited the collagenolytic activity | 4.3 | about 4.3 |
